According to paper PMC6895180 (Nature Communications, 2019):
Where “and” joins values, the source holds several entries; their conditions need not be identical. Equal values may be shown once.

How the values were obtained:
[1] = target: P2 transporter (TbAT1) (Trypanosoma brucei brucei, UniProt Q9Y0I0); experiment: cell-based; conditions: for Ki: P2 transporter Ki
Method: Non-specific association of radiolabel with the cell pellet was determined using an identical incubation in the presence of saturating (1 mM) unlabelled adenosine.

[2] = tested on: T. brucei Squib 427; experiment: microbe, parasite or virus in culture; format: cell-based, Trypanosoma brucei brucei
[3] = tested on: T. brucei BSF s427 wildtype cells; experiment: Growth assays of T. brucei (trypanocidal/trypanostatic effect); format: cell-based, Trypanosoma brucei
Summary of the method: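 Cells were seeded at 1×10^5 cells/mL in HMI-9 with 10% FBS and 2 μM 2'-deoxycoformycin, then counted manually at intervals up to 48 h. For wash-out, cultures at 10^5 cells/mL (37 °C/5% CO2) were split at 8 h and 48 h and resuspended with or without compound, with counts every 24 h (detection limit 10^4 cells/mL).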

Chain of P2 transporter (TbAT1) (Q9Y0I0 entry or part of it): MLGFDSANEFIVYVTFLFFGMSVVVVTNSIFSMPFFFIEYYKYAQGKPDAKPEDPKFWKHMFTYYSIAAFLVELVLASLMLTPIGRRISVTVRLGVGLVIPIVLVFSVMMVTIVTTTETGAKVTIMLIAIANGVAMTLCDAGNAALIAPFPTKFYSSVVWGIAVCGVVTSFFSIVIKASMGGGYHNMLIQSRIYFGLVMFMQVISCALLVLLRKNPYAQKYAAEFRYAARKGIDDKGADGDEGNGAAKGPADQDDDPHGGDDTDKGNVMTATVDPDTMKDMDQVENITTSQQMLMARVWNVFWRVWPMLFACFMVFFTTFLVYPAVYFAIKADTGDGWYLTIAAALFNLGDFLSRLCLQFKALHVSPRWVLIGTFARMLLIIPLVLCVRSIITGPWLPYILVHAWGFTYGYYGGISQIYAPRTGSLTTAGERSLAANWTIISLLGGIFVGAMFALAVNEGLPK

In the case of `Nc1ncnc2c1c(Br)cn2[C@@H]1O[C@H](CO)[C@@H](O)[C@H]1O` [Compound 8, 7-bromotubercidin], the “P2 transporter ΔG^0” value ([1]; Gibbs free energy from −RT ln(Ki)) is reported as -7.77 kcal/mol, the IC50 ([1]; P2 transporter IC50, single experiments, [L] 0.033 or 0.1 per experiment) is reported as 2.52 µM and 3.86 µM and 4.39 µM and the Ki ([1]; AVG, source data) is reported as 3.02 µM. For the same molecule, the Ki ([1]; single experiments, Cheng–Prusoff from IC50) was 2.11 µM and 3.24 µM and 3.69 µM, the “P2 transporter δ(ΔG^0)” value ([1]; in comparison to adenosine) was 0.789 kcal/mol and the EC50 ([2]; Trypanosoma brucei, Alamar blue cell viability assay, mean and SEM, read-out: T. b. brucei EC50) was 1.2 ± 0.3 µM. The “SI (MRC/T.b. brucei)” value ([2]; selectivity index) was 10, the “AVG of cells/mL” value ([3]; 2xEC50, 2 h, experiment 1) was 142500 cells/mL and the Cells/mL ([3]; 2xEC50, 2 h, experiment 1) was 127500 Cells/mL and 157500 Cells/mL. The Counts ([3]; 2xEC50, 2 h, experiment 1) was 51 and 63, the “AVG of cells/mL” value ([3]; 2xEC50, 2 h, experiment 2) was 155000 cells/mL and the Cells/mL ([3]; 2xEC50, 2 h, experiment 2) was 145000 Cells/mL and 165000 Cells/mL. For the same molecule, the Counts ([3]; 2xEC50, 2 h, experiment 2) was 58 and 66, the “AVG of cells/mL” value ([3]; 2xEC50, 4 h, experiment 1) was 146250 cells/mL and the Cells/mL ([3]; 2xEC50, 4 h, experiment 1) was 140000 Cells/mL and 152500 Cells/mL. For the same molecule, the Counts ([3]; 2xEC50, 4 h, experiment 1) was 61 and 56, the “AVG of cells/mL” value ([3]; 2xEC50, 4 h, experiment 2) was 162500 cells/mL and the Cells/mL ([3]; 2xEC50, 4 h, experiment 2) was 140000 Cells/mL and 185000 Cells/mL. The Counts ([3]; 2xEC50, 4 h, experiment 2) was 74 and 56, the “AVG of cells/mL” value ([3]; 2xEC50, 6 h, experiment 1) was 147500 cells/mL and the Cells/mL ([3]; 2xEC50, 6 h, experiment 1) was 132500 Cells/mL and 162500 Cells/mL. The Counts ([3]; 2xEC50, 6 h, experiment 1) was 53 and 65, the “AVG of cells/mL” value ([3]; 2xEC50, 6 h, experiment 2) was 175000 cells/mL and the Cells/mL ([3]; 2xEC50, 6 h, experiment 2) was 175000 Cells/mL. For the same molecule, the Counts ([3]; 2xEC50, 6 h, experiment 2) was 70, the “AVG of cells/mL” value ([3]; 2xEC50, 8 h, experiment 1) was 175000 cells/mL and the Cells/mL ([3]; 2xEC50, 8 h, experiment 1) was 185000 Cells/mL and 165000 Cells/mL. The Counts ([3]; 2xEC50, 8 h, experiment 1) was 74 and 66, the “AVG of cells/mL” value ([3]; 2xEC50, 8 h, experiment 2) was 166250 cells/mL and the Cells/mL ([3]; 2xEC50, 8 h, experiment 2) was 180000 Cells/mL and 152500 Cells/mL. For the same molecule, the Counts ([3]; 2xEC50, 8 h, experiment 2) was 72 and 61, the “AVG of cells/mL” value ([3]; 2xEC50, 12 h, experiment 1) was 185000 cells/mL and the Cells/mL ([3]; 2xEC50, 12 h, experiment 1) was 185000 Cells/mL. The Counts ([3]; 2xEC50, 12 h, experiment 1) was 74, the “AVG of cells/mL” value ([3]; 2xEC50, 12 h, experiment 2) was 181250 cells/mL and the Cells/mL ([3]; 2xEC50, 12 h, experiment 2) was 190000 Cells/mL and 172500 Cells/mL. For the same molecule, the Counts ([3]; 2xEC50, 12 h, experiment 2) was 76 and 69, the “AVG of cells/mL” value ([3]; 2xEC50, 24 h, experiment 1) was 211250 cells/mL and the Cells/mL ([3]; 2xEC50, 24 h, experiment 1) was 227500 Cells/mL and 195000 Cells/mL. The Counts ([3]; 2xEC50, 24 h, experiment 1) was 91 and 78, the “AVG of cells/mL” value ([3]; 2xEC50, 24 h, experiment 2) was 167500 cells/mL and the Cells/mL ([3]; 2xEC50, 24 h, experiment 2) was 165000 Cells/mL and 170000 Cells/mL. For the same molecule, the Counts ([3]; 2xEC50, 24 h, experiment 2) was 66 and 68, the “AVG of cells/mL” value ([3]; 2xEC50, 36 h, experiment 1) was 350000 cells/mL and the Cells/mL ([3]; 2xEC50, 36 h, experiment 1) was 322500 Cells/mL and 377500 Cells/mL. For the same molecule, the Counts ([3]; 2xEC50, 36 h, experiment 1) was 129 and 151, the “AVG of cells/mL” value ([3]; 2xEC50, 36 h, experiment 2) was 212500 cells/mL and the Cells/mL ([3]; 2xEC50, 36 h, experiment 2) was 220000 Cells/mL and 205000 Cells/mL. For the same molecule, the Counts ([3]; 2xEC50, 36 h, experiment 2) was 88 and 82, the “AVG of cells/mL” value ([3]; 2xEC50, 48 h, experiment 1) was 365000 cells/mL and the Cells/mL ([3]; 2xEC50, 48 h, experiment 1) was 365000 Cells/mL. For the same molecule, the Counts ([3]; 2xEC50, 48 h, experiment 1) was 146, the “AVG of cells/mL” value ([3]; 2xEC50, 48 h, experiment 2) was 152500 cells/mL and the Cells/mL ([3]; 2xEC50, 48 h, experiment 2) was 142500 Cells/mL and 162500 Cells/mL. For the same molecule, the Counts ([3]; 2xEC50, 48 h, experiment 2) was 57 and 65, the “effect on T. brucei bloodstream forms in culture (cidal/static)” value ([3]; 2× and 5× EC50) was “trypanostatic” and the “AVG of cells/mL” value ([3]; 5xEC50, 2 h, experiment 1) was 118750 cells/mL. For the same molecule, the Cells/mL ([3]; 5xEC50, 2 h, experiment 1) was 130000 Cells/mL and 107500 Cells/mL, the Counts ([3]; 5xEC50, 2 h, experiment 1) was 52 and 43 and the “AVG of cells/mL” value ([3]; 5xEC50, 2 h, experiment 2) was 130000 cells/mL. The Cells/mL ([3]; 5xEC50, 2 h, experiment 2) was 137500 Cells/mL and 122500 Cells/mL, the Counts ([3]; 5xEC50, 2 h, experiment 2) was 55 and 49 and the “AVG of cells/mL” value ([3]; 5xEC50, 4 h, experiment 1) was 138750 cells/mL. The Cells/mL ([3]; 5xEC50, 4 h, experiment 1) was 132500 Cells/mL and 145000 Cells/mL, the Counts ([3]; 5xEC50, 4 h, experiment 1) was 58 and 53 and the “AVG of cells/mL” value ([3]; 5xEC50, 4 h, experiment 2) was 130000 cells/mL. For the same molecule, the Cells/mL ([3]; 5xEC50, 4 h, experiment 2) was 125000 Cells/mL and 135000 Cells/mL, the Counts ([3]; 5xEC50, 4 h, experiment 2) was 54 and 50 and the “AVG of cells/mL” value ([3]; 5xEC50, 6 h, experiment 1) was 186250 cells/mL. The Cells/mL ([3]; 5xEC50, 6 h, experiment 1) was 195000 Cells/mL and 177500 Cells/mL, the Counts ([3]; 5xEC50, 6 h, experiment 1) was 78 and 71 and the “AVG of cells/mL” value ([3]; 5xEC50, 6 h, experiment 2) was 162500 cells/mL. The Cells/mL ([3]; 5xEC50, 6 h, experiment 2) was 155000 Cells/mL and 170000 Cells/mL, the Counts ([3]; 5xEC50, 6 h, experiment 2) was 62 and 68 and the “AVG of cells/mL” value ([3]; 5xEC50, 8 h, experiment 1) was 160000 cells/mL. The Cells/mL ([3]; 5xEC50, 8 h, experiment 1) was 162500 Cells/mL and 157500 Cells/mL, the Counts ([3]; 5xEC50, 8 h, experiment 1) was 65 and 63 and the “AVG of cells/mL” value ([3]; 5xEC50, 8 h, experiment 2) was 125000 cells/mL. For the same molecule, the Cells/mL ([3]; 5xEC50, 8 h, experiment 2) was 122500 Cells/mL and 127500 Cells/mL, the Counts ([3]; 5xEC50, 8 h, experiment 2) was 49 and 51 and the “AVG of cells/mL” value ([3]; 5xEC50, 12 h, experiment 1) was 176250 cells/mL. For the same molecule, the Cells/mL ([3]; 5xEC50, 12 h, experiment 1) was 190000 Cells/mL and 162500 Cells/mL, the Counts ([3]; 5xEC50, 12 h, experiment 1) was 76 and 65 and the “AVG of cells/mL” value ([3]; 5xEC50, 12 h, experiment 2) was 166250 cells/mL. The Cells/mL ([3]; 5xEC50, 12 h, experiment 2) was 175000 Cells/mL and 157500 Cells/mL, the Counts ([3]; 5xEC50, 12 h, experiment 2) was 70 and 63 and the “AVG of cells/mL” value ([3]; 5xEC50, 24 h, experiment 1) was 146250 cells/mL. For the same molecule, the Cells/mL ([3]; 5xEC50, 24 h, experiment 1) was 135000 Cells/mL and 157500 Cells/mL, the Counts ([3]; 5xEC50, 24 h, experiment 1) was 54 and 63 and the “AVG of cells/mL” value ([3]; 5xEC50, 24 h, experiment 2) was 126250 cells/mL. The Cells/mL ([3]; 5xEC50, 24 h, experiment 2) was 115000 Cells/mL and 137500 Cells/mL, the Counts ([3]; 5xEC50, 24 h, experiment 2) was 46 and 55 and the “AVG of cells/mL” value ([3]; 5xEC50, 36 h, experiment 1) was 146250 cells/mL. For the same molecule, the Cells/mL ([3]; 5xEC50, 36 h, experiment 1) was 147500 Cells/mL and 145000 Cells/mL, the Counts ([3]; 5xEC50, 36 h, experiment 1) was 59 and 58 and the “AVG of cells/mL” value ([3]; 5xEC50, 36 h, experiment 2) was 138750 cells/mL. For the same molecule, the Cells/mL ([3]; 5xEC50, 36 h, experiment 2) was 145000 Cells/mL and 132500 Cells/mL, the Counts ([3]; 5xEC50, 36 h, experiment 2) was 58 and 53 and the “AVG of cells/mL” value ([3]; 5xEC50, 48 h, experiment 1) was 112500 cells/mL. For the same molecule, the Cells/mL ([3]; 5xEC50, 48 h, experiment 1) was 112500 Cells/mL, the Counts ([3]; 5xEC50, 48 h, experiment 1) was 45 and the “AVG of cells/mL” value ([3]; 5xEC50, 48 h, experiment 2) was 75000 cells/mL. The Cells/mL ([3]; 5xEC50, 48 h, experiment 2) was 65000 Cells/mL and 85000 Cells/mL and the Counts ([3]; 5xEC50, 48 h, experiment 2) was 26 and 34.
